# Measurements as given in PubChem BioAssay (NCI).
# “And” between values parts separate entries of the source, which are not always exact repeats. Equal values may be shown once.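 All cell lines were grown in 96-well plates and treated with compound for 48 hours. Here, GI50 denotes the concentration required for 50% inhibition of growth. At the TGI there is no net growth.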
# Legend:
# Assay in all cases: NCI-60 cell line screen, 48 h
# [1] = test system: A549 NSCLC
# [2] = test system: OVCAR-3 ovarian
# [3] = test system: A498 renal
# [4] = test system: NCI-H460 lung
# [5] = test system: COLO 205 colon
# [6] = test system: OVCAR-8 ovarian
# [7] = test system: CCRF-CEM leukemia
# [8] = test system: MCF7 breast
# [9] = test system: SK-MEL-28 melanoma
# [10] = test system: EKVX NSCLC
SMILES,TGI [1],TGI [2],TGI [3],TGI [4],TGI [5],TGI [6],TGI [7],TGI [8],GI50 [9],TGI [9],GI50 [1],GI50 [2],GI50 [10],TGI [10],GI50 [3],GI50 [4],GI50 [5],GI50 [6],GI50 [7],GI50 [8]
CCCCCCCCCCCCC(O)C(=O)O (centres undefined),> 100 µM,> 100 µM,> 100 µM,> 100 µM,> 100 µM,> 100 µM,> 100 µM,> 100 µM,–,–,–,–,–,–,–,–,–,–,–,–
O=C(O)CCCc1ccccc1,> 1000 µM,> 1000 µM,302 µM and > 1000 µM,295 µM and > 1000 µM,> 1000 µM,–,350 µM and > 1000 µM,> 1000 µM,325 µM and > 1000 µM,> 1000 µM,322 µM and > 1000 µM,537 µM,294 µM and > 1000 µM,> 1000 µM,> 1000 µM,> 1000 µM,363 µM and > 1000 µM,150 µM and 17.3 µM,> 1000 µM,160 µM and > 1000 µM
C/C(N=NS(=O)(=O)c1ccc(C)cc1)=C1\C=CC=CN1O,> 100 µM,> 100 µM,> 100 µM,> 100 µM,–,> 100 µM,> 100 µM,–,–,> 100 µM,–,–,–,> 100 µM,–,–,–,–,–,–
COc1cc(C(=O)C2CC3(CCC2(O)c2cc(OC)c(OC)c(OC)c2)CC(=O)Nc2ccccc2C3=O)cc(OC)c1OC (centres undefined),> 100 µM,> 100 µM,> 100 µM,50.7 µM,62.6 µM,> 100 µM,> 100 µM,> 100 µM,–,> 100 µM,–,–,–,> 100 µM,–,–,–,–,–,–
Cc1cn(C2CC(O)C(Cn3nncc3Cn3ncc(=O)[nH]c3=O)O2)c(=O)[nH]c1=O (centres undefined),> 100 µM,> 100 µM,> 100 µM,–,> 100 µM,> 100 µM,> 100 µM,> 100 µM,–,> 100 µM,–,–,–,> 100 µM,–,–,–,–,–,–
c1ccc2cc3c(cc2c1)OP1(Oc2cccc4cccnc24)(O3)Oc2cc3ccccc3cc2O1,> 100 µM,5.45 µM,64.3 µM,12.3 µM,> 100 µM,> 57.1 µM,> 100 µM,> 100 µM,–,> 100 µM,–,–,–,> 57.3 µM,–,–,–,–,–,–
Cc1c(C2=NN=C(N=Nc3c(O)cccc3O)/C2=C/c2ccccc2)c(=O)n(-c2ccccc2)n1C,> 100 µM,> 100 µM,> 100 µM,> 100 µM,> 100 µM,> 100 µM,> 100 µM,> 100 µM,–,> 100 µM,–,–,–,> 100 µM,–,–,–,–,–,–
CC1SC(c2ccc(Cl)cc2)N(CCc2cccs2)C1=O (centres undefined),7.41 µM,2.74 µM,2.47 µM,3.26 µM,3.02 µM,4.08 µM,11.3 µM,6.23 µM,1.58 µM,2.99 µM,2.07 µM,1.42 µM,1.3 µM,4.47 µM,1.21 µM,1.56 µM,1.63 µM,1.93 µM,2.14 µM,2.11 µM
